Reference: PMC6155649 (Molecules : A Journal of Synthetic Chemistry and Natural …, 2017)
Like-named read-outs stand apart in the source and are kept apart here. Marks after values point to notes of the source that are not given here.

Assays:
P. falciparum Dd2 [1] = assay: tritiated hypoxanthine incorporation growth inhibition assay; format: cell-based; conditions: for IC50: mean value
Method: (§1) The protocols are described in the experimental section. Two protocols to measure the growth inhibition were used: the tritiated hypoxanthine incorporation method and the SYBRgreen method. This was due to the fact that the radioactive assay was abandoned in the laboratory due to cost issues related to radioactive waste disposal. […] All data are mean values from one to four independent experiments, each consisting of eight drug concentrations in duplicate.
The IC50 values were determined using standard in vitro proliferation assays. […] The amount of radioactivity in precipitable material served as an index of parasite proliferation.

P. falciparum Dd2 [2] = assay: SYBRgreen growth inhibition assay; format: cell-based; conditions: read-out: IC50 (nM) ± SD (n)
Method: as §1
Parasite replication was assessed by fluorescent SYBRgreen staining of parasitic DNA [60] as previously described. IC50 values were calculated using SigmaPlot.

[3] = system: human lung MRC-5 fibroblasts; assay: cytotoxicity, Alamar Blue (resazurin) assay; conditions: human MRC-5 fibroblasts, 3 days incubation
Method: All compounds were tested for cytotoxicity on human lung MRC-5 fibroblasts using the Alamar Blue assay (Table 1 and Table 2).
MRC-5SV2 cells are cultured in Earls MEM +5% FCSi. […] After 3 days incubation, cell viability is assessed fluorimetrically after addition of resazurin and fluorescence is measured (λex 550 nm, λem 590 nm). The results are expressed as % reduction in cell growth/viability compared to untreated control wells and CC50 is determined.

P. berghei (ANKA-strain) = assay: in vivo antimalarial activity in P. berghei ANKA-infected Swiss mice; design: species or system Plasmodium berghei; conditions: for % Parasitaemia (dpi) 4 / % Suppression (dpi) 4: day 4 post infection; for % Parasitaemia (dpi) 7 / % Suppression (dpi) 7: day 7 post infection; for % Parasitaemia (dpi) 11 / % Suppression (dpi) 11: day 11 post infection
Method: Swiss mice (female—BW ~ 25 g; Janvier France, Le Genest Saint Isle, France) were allocated randomly to five groups of four animals each. Drinking water and food were available ad libitum throughout the experiment.
P. berghei (ANKA-strain) is maintained in the laboratory by weekly mechanical subpassage in Swiss mice. The infection inoculum was prepared by taking heparinized blood was collected from a clinically ill donor mouse (approximately 20% parasitaemia) and diluted in PBS to obtain an infection inoculum of 0.15 mL with about 4 × 10^8 infected erythrocytes. The infection-inoculum was given intraperitoneally. The untreated infected controls developed severe malaria with most animals showing severe clinical signs on day 4. […]. […]

[4] = in 0.4 M KCl; cited from earlier work
P. falciparum Dd2 [5] = system: P. falciparum Dd2; design: method as in PMID 21682307; conditions: P. falciparum Dd2, tritiated hypoxanthine incorporation method, previously reported values; cited from earlier work
[6] = system: human lung MRC-5 fibroblasts; design: method as in PMID 21682307; conditions: human MRC-5 fibroblasts, previously reported values; cited from earlier work
Fe^III-heme = conditions: read-out: KD of the 1:1 π-π complex with Fe^III-heme; pH 7.5; cited from earlier work
[7] = absorption spectrophotometric titrations versus pH (pKa); conditions: for [LH+]pH5/[LH+]pH7.4: ratio of protonated species at pH 5 and 7.4, I = 0.1 M NaClO4, T = 25 °C; for pH of precipitation during the titration: H2O/DMSO, 91/1 v/v as printed, pKa could not be accurately evaluated
Source text: The HClO4 and NaOH solutions were freshly prepared just before use and titrated with sodium tetraborate decahydrate (B4Na2O7·10H2O, puriss, p.a, Fluka) and potassium hydrogen phthalate (C8H5KO3, Fluka, puriss, p.a.), respectively, using methyl orange (RAL) and phenolphthalein (Prolabo, purum) as the indicators. The GLEE program was applied for the glass electrode calibration (standard electrode potential E0/mV and slope of the electrode/mV pH^−1) and to check carbonate levels of the NaOH solutions used (<5%). The cell was thermostated at 25.0 ± 0.2 °C by the flow of a Lauda E200 thermostat. A stream of argon, pre-saturated with water vapour, was passed over the surface of the solution.
The spectrophotometric data were analyzed with the Specfit program which adjusts the absorptivities and the stability constants of the species formed at equilibrium. Specfit uses factor analysis to reduce the absorbance matrix and to extract the eigenvalues prior to the multiwavelength fit of the reduced data set according to the Marquardt algorithm.

P. berghei strain ANKA = system: P. berghei strain ANKA; design: method as in PMID 21682307; conditions: P. berghei strain ANKA-infected CD1 mice, day 4; cited from earlier work
[8] = P. falciparum Dd2, tritiated hypoxanthine incorporation method
[9] = Plasmodium falciparum, DD2, P. falciparum Dd2, tritiated hypoxanthine incorporation method
[10] = Plasmodium falciparum, P. falciparum Dd2, SYBRgreen method, 72 h
[11] = 50 mg/kg ip for 5 days, Swiss mice
[12] = Plasmodium falciparum, DD2, 72 h
[13] = 10 mg/kg ip for 5 days, Swiss mice
[14] = 10 mg/kg ip for 5 days, Swiss mice, day 14 post infection
[15] = 10 mg/kg ip for 5 days, infected Swiss mice
[16] = 0.1 M NaClO4 in water/DMSO (91:9 v/v)
[17] = P. falciparum Dd2, SYBRgreen method, 72 h

Compound: CC1=C(Cc2ccc(NC(=O)OC(C)(C)C)cc2)C(=O)c2ccccc2C1=O [Compound 6, tert-Butyl(4-((3-Methyl-1,4-dioxo-1,4-dihydronaphthalen-2-yl)methyl)phenyl) carbamate]
- IC50 (P. falciparum Dd2 [1]; [8]): 0.0425 µM
- IC50 (P. falciparum Dd2 [1]; [9]): 0.042 µM
- IC50 (P. falciparum Dd2 [2]; [10]): 109 ± 46 nM
- Tox/MRC-5 [3]: >64.0 µM
- % Parasitaemia (dpi) 4 (P. berghei (ANKA-strain); [11]): 9.4%
- % Suppression (dpi) 4 (P. berghei (ANKA-strain); [11]): 75.5%
- % Parasitaemia (dpi) 7 (P. berghei (ANKA-strain); [11]): 7.7%
- % Suppression (dpi) 7 (P. berghei (ANKA-strain); [11]): 81.8%
- % Parasitaemia (dpi) 11 (P. berghei (ANKA-strain); [11]): 41.9%
- % Suppression (dpi) 11 (P. berghei (ANKA-strain); [11]): 38.1%
- % Parasitaemia (dpi) 14 (P. berghei (ANKA-strain); 50 mg/kg ip for 5 days, Swiss mice, day 14 post infection): 69.3%
- Health Status (P. berghei (ANKA-strain); 50 mg/kg ip for 5 days, infected Swiss mice): From day 4 p.i. onwards: poor appearance (intermittent), one animal died before day 14 p.i.

Compound: CC(=O)Nc1ccccc1CC1=C(C)C(=O)c2ccccc2C1=O [Compound 22, N-(2-((3-Methyl-1,4-dioxo-1,4-dihydronaphthalen-2-yl)methyl)phenyl)acetamide]
- IC50 (P. falciparum Dd2 [2]; [10]): 282 ± 86 nM
- Tox/MRC-5 [3]: 4.4 µM
- melting point: 218 to 220 °C

Compound: OCCN(CCO)c1ccccc1 [N-phenyldiethanolamine]
- pKa [4]: 4.13

Compound: CCN(CC)CCCC(C)Nc1ccnc2cc(Cl)ccc12 (stereo not drawn) [Chloroquine, chloroquine]
- IC50 (P. falciparum Dd2 [2]; [12]): 99 ± 19 nM
- % Parasitaemia (dpi) 4 (P. berghei (ANKA-strain); [13]): 5.2%
- % Suppression (dpi) 4 (P. berghei (ANKA-strain); [13]): 86.3%
- % Parasitaemia (dpi) 7 (P. berghei (ANKA-strain); [13]): 9.8%
- % Suppression (dpi) 7 (P. berghei (ANKA-strain); [13]): 76.8%
- % Parasitaemia (dpi) 11 (P. berghei (ANKA-strain); [13]): 32.1%
- % Suppression (dpi) 11 (P. berghei (ANKA-strain); [13]): 52.7%
- % Parasitaemia (dpi) 14 (P. berghei (ANKA-strain); [14]): 56.2%
- % Suppression (dpi) 14 (P. berghei (ANKA-strain); [14]): 9.2%
- Health Status (P. berghei (ANKA-strain); [15]): From day 4 p.i. onwards: poor appearance, tremor, body weight loss, rough hair, one animal died before day 14 p.i.
- survival until day 7 (P. berghei (ANKA-strain); [15]): 100%
- IC50 (P. falciparum Dd2 [5]): 0.11 ± 0.02 µM
- Tox/MRC-5 [6]: 51.5 µM
- Kd (Fe^III-heme): 2 to 15 µM

Compound: CC1=C(Cc2ccc(N(C)C)cc2)C(=O)c2ccccc2C1=O [Compound 3, 2-(4-(Dimethylamino)benzyl)-3-methylnaphthalene-1,4-dione]
- IC50 (P. falciparum Dd2 [2]; [10]): 567 ± 217 nM
- Tox/MRC-5 [3]: >64.0 µM
- pKa [7, 16]: 4.87 ± 0.03
- [LH+]pH5/[LH+]pH7.4 ([7]; Water/DMSO (0.91/0.09 v/v)): 144.7

Compound: CC(=O)Nc1cccc(CC2=C(C)C(=O)c3ccccc3C2=O)c1 [Compound 16, N-(3-((3-Methyl-1,4-dioxo-1,4-dihydronaphthalen-2-yl)methyl)phenyl)acetamide]
- IC50 (P. falciparum Dd2 [2]; [12]): 310 ± 134 nM

Compound: CC(=O)Nc1ccc(CC2=C(C)C(=O)c3ccccc3C2=O)cc1 [Compound 9, N-(4-((3-Methyl-1,4-dioxo-1,4-dihydronaphthalen-2-yl)methyl)phenyl)acetamide]
- IC50 (P. falciparum Dd2 [2]; [12]): 411 ± 220 nM

Compound: 2-Methyl-3-(3-bromo-benzyl)-4a,8a-dihydro-[1,4]naphthoquinone [Compound 25b]
- IC50 (P. falciparum Dd2 [2]; [17]): 128 nM
- Tox/MRC-5 [3]: 20.8 µM

Compound: CCN(CC)c1ccc(CC2=C(C)C(=O)c3ccccc3C2=O)cc1 [Compound 11, 2-(4-(Diethylamino)benzyl)-3-methylnaphthalene-1,4-dione]
- IC50 (P. falciparum Dd2 [2]; [10]): 2060 ± 1070 nM
- Tox/MRC-5 [3]: 29.3 µM
- pKa [7, 16]: 5.07 ± 0.06
- [LH+]pH5/[LH+]pH7.4 ([7]; Water/DMSO (0.91/0.09 v/v)): 112.0

Compound: 2-(4′-nitro-Butyl-biphenyl-4-ylmethyl)-3-methyl-[1,4]naphthoquinone [Compound 28]
- IC50 (P. falciparum Dd2 [1]; [8]): 0.474 µM
- Tox/MRC-5 [3]: >64.0 µM

Compound: CCN(CC)c1cccc(CC2=C(C)C(=O)c3ccccc3C2=O)c1 [Compound 19, 2-(3-(Diethylamino)benzyl)-3-methylnaphthalene-1,4-dione]
- IC50 (P. falciparum Dd2 [2]; [10]): 236 ± 97 nM
- Tox/MRC-5 [3]: >64.0 µM
- pKa [7, 16]: 5 to 5.5
- pH of precipitation during the titration [7]: ~ 5

Compound: CC1=C(Cc2ccc(-c3ccc(N(C)C)cc3)cc2)C(=O)c2ccccc2C1=O [Compound 26, 2-(4′-Dimethylamino-biphenyl-4-ylmethyl)-3-methyl-[1,4]naphthoquinone]
- fold higher IC50 value than plasmodione (P. falciparum Dd2 [1]; P. falciparum Dd2, hypoxanthine incorporation test): 10 fold
- IC50 (P. falciparum Dd2 [1]; [8]): 0.223 µM
- IC50 (P. falciparum Dd2 [1]; [9]): 0.229 µM
- Tox/MRC-5 [3]: >64.0 µM
- melting point: 170 to 171 °C

Compound: 2-Methyl-3-(4-bromo-benzyl)-4a,8a-dihydro-[1,4]naphthoquinone [Compound 25c]
- IC50 (P. falciparum Dd2 [2]; [17]): 82 ± 2 nM
- IC50 (P. falciparum Dd2 [5]): 0.046 ± 0.004 µM
- Tox/MRC-5 [6]: >32.0 µM
- Tox/MRC-5 (µM) [6]: >32.0 ^b µM
- reduction of parasitemia (P. berghei strain ANKA): 35.8%

Compound: CC1=C(Cc2cccc(N(C)C)c2)C(=O)c2ccccc2C1=O [Compound 18, 2-(3-(Dimethylamino)benzyl)-3-methylnaphthalene-1,4-dione]
- IC50 (P. falciparum Dd2 [2]; [10]): 386 ± 151 nM
- Tox/MRC-5 [3]: >64.0 µM
- pKa [7, 16]: 4.6 ± 0.04
- [LH+]pH5/[LH+]pH7.4 ([7]; Water/DMSO (0.91/0.09 v/v)): 179.9

Compound: para-N-ethyl-3-benzylmenadione [Compound 10]
- IC50 (P. falciparum Dd2 [2]; [17]): 418 ± 166 nM
- Tox/MRC-5 [3]: >64.0 µM
- pKa ± σ [7]: 5–5.5
- pH of precipitation during the titration [7]: ~ 5

Compound: 2-Methyl-3-(2-bromo-benzyl)-4a,8a-dihydro-[1,4]naphthoquinone [Compound 25a]
- IC50 (P. falciparum Dd2 [2]; [17]): 86.3 nM
- Tox/MRC-5 [3]: >64.0 µM

Compound: CC1=C(Cc2ccc(N)cc2)C(=O)c2ccccc2C1=O [Compound 7, 2-(4-Aminobenzyl)-3-methylnaphthalene-1,4-dione]
- IC50 (P. falciparum Dd2 [2]; [10]): 303 ± 138 nM
- Tox/MRC-5 [3]: >64.0 µM
- [LH+]pH5/[LH+]pH7.4 ([7]; Water): 162.5
- pKa ([7]; water with 0.1 M NaClO4): 4.74 ± 0.05

Compound: CC1=C(Cc2ccc(-c3ccc(C(C)(C)C)cc3)cc2)C(=O)c2ccccc2C1=O [Compound 27, 2-(4′-tert-Butyl-biphenyl-4-ylmethyl)-3-methyl-[1,4]naphthoquinone]
- IC50 (P. falciparum Dd2 [1]; [9]): 0.485 µM
- Tox/MRC-5 [3]: >64.0 µM
- melting point: 112 to 114 °C
